Each structure is given as a SMILES string.

This data set is described as follows: High temperature and illumination stability test of crystal forms 1-3. The following applies: Illumination (illuminance: 5000Lx), Day 0 (Table 18-1). The data set is classed as physicochemical.

On to `COc1cc(N2CCC(N3CCN(C)CC3)CC2)c(C)cc1Nc1ncc(Br)c(Nc2ccc(C)cc2P(C)(C)=O)n1` [Crystal form 1, (2-((5-bromo-2-((2-methoxy-5-methyl-4-(4-(4-methylpiperazin-1-yl)piperidin-1-yl)phenyl)amino)pyrimidin-4-yl)amino)-5-methylphenyl)dimethylphosphorus oxide dihydrate], for which the Traits result was “off-white”.

The values are drawn from patent US20240376138A1, “Crystal Forms, Preparation Method And Application Of Aryl Phosphine Oxide Compound” (Chengdu Di'Ao Jiuhong Pharmaceutical Factory, priority 2021, published 2024).
